The values below come from PubChem BioAssay (NCI).

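Test compounds were applied to cells in 96-well plates for 48 hours at 5 doses. The concentration for full growth arrest is given as TGI.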

Some test systems named below: SNB-19 CNS; KM12 colon; HCT-116 colon; ACHN renal; SR leukemia; NCI/ADR-RES ovarian; A498 renal; U251 CNS; A549 NSCLC; COLO 205 colon; MDA-MB-435; BT-549 breast; CCRF-CEM leukemia; 786-0 renal; NCI-H460 lung; NCI-H23 lung; NCI-H226 lung; LOX IMVI melanoma; SW-620 colon; RPMI-8226 leukemia.
Holding throughout (assay): NCI-60 cell line screen, 48 h

For `CCC(CCCCC1CC[C@H]2CC(=O)C[C@@H]12)OC` (stereo not given in full), the TGI in the assay with SNB-19 CNS, in the assay with KM12 colon, in the assay with HCT-116 colon, in the assay with ACHN renal, with SR leukemia and in the assay with NCI/ADR-RES ovarian was > 100 µM in each case. Moreover, the TGI in the assay on A498 renal, with U251 CNS, in the assay with A549 NSCLC, in the assay on COLO 205 colon, in the assay with MDA-MB-435 and with BT-549 breast was > 100 µM throughout. Also, the TGI in the assay with CCRF-CEM leukemia, in the assay with 786-0 renal, in the assay with NCI-H460 lung, in the assay on NCI-H23 lung, in the assay on NCI-H226 lung and with LOX IMVI melanoma was > 100 µM each time. Also, the TGI with SW-620 colon and in the assay with RPMI-8226 leukemia was > 100 µM each time.
With `O=C1C(c2c(O)[nH]c3ccc(S(=O)(=O)N(CCO)CCO)cc23)=Nc2ccccc21`, the TGI in the assay with SNB-19 CNS, in the assay with KM12 colon, with HCT-116 colon, in the assay on ACHN renal, in the assay with SR leukemia and with NCI/ADR-RES ovarian was > 100 µM throughout. Moreover, the TGI with A498 renal, in the assay with U251 CNS, in the assay with A549 NSCLC, in the assay with COLO 205 colon, in the assay on MDA-MB-435 and with BT-549 breast was > 100 µM throughout. The TGI in the assay on CCRF-CEM leukemia, in the assay with 786-0 renal, in the assay with NCI-H460 lung, in the assay with NCI-H23 lung, in the assay on NCI-H226 lung and in the assay on LOX IMVI melanoma was > 100 µM each time. Moreover, the TGI in the assay on SW-620 colon and with RPMI-8226 leukemia was > 100 µM throughout.
As for `O=C1/C(=C/c2ccc(O)cc2)CCc2ccccc21`, the TGI in the assay on SNB-19 CNS is 50.7 µM; in the assay with KM12 colon, 32.2 µM; in the assay with HCT-116 colon it was 31.6 µM; with ACHN renal, 69.5 µM; in the assay on SR leukemia, 16 µM; in the assay with NCI/ADR-RES ovarian it was 44.8 µM. In addition, the TGI was 44.5 µM in the assay with A498 renal; 69.7 µM with U251 CNS; 64.1 µM in the assay with A549 NSCLC; 40.5 µM with COLO 205 colon; 52.8 µM in the assay with MDA-MB-435; 41.4 µM in the assay on BT-549 breast. The TGI was found to be 10.9 µM with CCRF-CEM leukemia; 39.1 µM in the assay on 786-0 renal; 72.4 µM with NCI-H460 lung; 55.2 µM with NCI-H23 lung; 57.8 µM in the assay on NCI-H226 lung; 49.2 µM in the assay with LOX IMVI melanoma. Also, the TGI worked out at 40.1 µM in the assay with SW-620 colon and 34.9 µM with RPMI-8226 leukemia.
As to `CCCC[Si](CCCC)(CCCC)O[C@@H](/C=C/C(=O)OCC)[C@H](Cc1ccccc1)O[Si](CCCC)(CCCC)CCCC`, the TGI in the assay on SNB-19 CNS, in the assay with KM12 colon, in the assay on HCT-116 colon, in the assay with ACHN renal, with SR leukemia and in the assay with NCI/ADR-RES ovarian was > 100 µM in each case. The TGI in the assay with A498 renal, with U251 CNS, in the assay with A549 NSCLC, in the assay with COLO 205 colon, in the assay on MDA-MB-435 and with BT-549 breast was > 100 µM in each case. For the same compound, the TGI in the assay with CCRF-CEM leukemia, with 786-0 renal, in the assay on NCI-H460 lung, in the assay with NCI-H23 lung, in the assay on NCI-H226 lung and in the assay on LOX IMVI melanoma was > 100 µM throughout. Moreover, the TGI in the assay on SW-620 colon and in the assay on RPMI-8226 leukemia was > 100 µM throughout.
On to `COc1ccc2nc(-c3ccc(O)cc3)cn2c1`, for which the TGI in the assay on SNB-19 CNS, with KM12 colon, in the assay with HCT-116 colon, with ACHN renal, in the assay with SR leukemia and in the assay on NCI/ADR-RES ovarian was > 100 µM each time. Moreover, the TGI in the assay with A498 renal, with U251 CNS, in the assay with A549 NSCLC, in the assay on COLO 205 colon, in the assay with MDA-MB-435 and in the assay on BT-549 breast was > 100 µM throughout. For the same compound, the TGI with CCRF-CEM leukemia, in the assay on 786-0 renal, in the assay on NCI-H460 lung, with NCI-H23 lung, in the assay on NCI-H226 lung and with LOX IMVI melanoma was > 100 µM each time. For the same compound, the TGI with SW-620 colon and with RPMI-8226 leukemia was > 100 µM in each case.
Regarding `CC[C@]12C=CCN3CCC4(c5cc(N=Nc6ccc([N+](=O)[O-])cc6)c(OC)cc5N(C)[C@H]4[C@@](O)(C(=O)OC)[C@@H]1OC(C)=O)[C@@H]32` (stereo not given in full), the TGI with SNB-19 CNS is > 100 µM; with KM12 colon it was 33.2 µM; in the assay on HCT-116 colon it was 24.6 µM; in the assay with ACHN renal it was 67.8 µM; with SR leukemia it was 32 µM; with NCI/ADR-RES ovarian, 42.2 µM. The TGI was 77.2 µM in the assay on A498 renal; 27.4 µM with U251 CNS; > 100 µM in the assay with A549 NSCLC; 42.5 µM in the assay with COLO 205 colon; 31.6 µM in the assay on MDA-MB-435; > 100 µM in the assay on BT-549 breast. Moreover, the TGI with CCRF-CEM leukemia is 26.6 µM; in the assay with 786-0 renal it was 25.1 µM; in the assay with NCI-H460 lung, > 100 µM; in the assay with NCI-H23 lung, 32.4 µM; in the assay with NCI-H226 lung it was 56.5 µM; with LOX IMVI melanoma, 47.3 µM. In addition, the TGI in the assay on SW-620 colon was > 100 µM; in the assay on RPMI-8226 leukemia, 46.1 µM.
Consider `Cc1ccc2cccc(OC(=O)c3cc4c(cc3Cl)Sc3nccn3S4(=O)=O)c2n1`, for which the TGI in the assay with SNB-19 CNS is 46.3 µM; with KM12 colon, 18.7 µM; in the assay on HCT-116 colon, 18.9 µM; in the assay with ACHN renal, 38.7 µM; in the assay on SR leukemia, 16.7 µM; in the assay on NCI/ADR-RES ovarian, 46.2 µM. The TGI in the assay with A498 renal is 45 µM; in the assay on U251 CNS it was 16.6 µM; in the assay on A549 NSCLC, 28.5 µM; with COLO 205 colon it was 29.4 µM; with MDA-MB-435, 26.1 µM; with BT-549 breast it was > 78.1 µM. Also, the TGI in the assay with CCRF-CEM leukemia was 17 µM; with 786-0 renal, 43.6 µM; with NCI-H460 lung, 10.4 µM; with NCI-H23 lung, 63.6 µM; with NCI-H226 lung, > 75.7 µM; in the assay on LOX IMVI melanoma, 19.8 µM. The TGI in the assay on SW-620 colon was found to be 40.3 µM; with RPMI-8226 leukemia, 7.03 µM.
